For series [1] the following is noted: cited from earlier work.
Series [2] can be described thus: physchem. In kind it is physicochemical. Particulars: organic solvent or mixture, thermodynamic from solid. Here is the method:
The solubility of terameprocol was tested in various solvents and dispersed systems. An excess of the solid API (20-50 mg) was shaken with 1 mL of a given solvent overnight (˜16 hr) at room temperature on a gyratory shaker at maximum speed. The samples were filtered through 0.45 μm PVDF filter. The filtrates were diluted to the working linear range (0.06-0.1 mg/mL) of the UV-Vis method appropriately in acetonitrile and analyzed for terameprocol concentration using a UV-Vis spectrophotometer. The equation of the standard curve was y=16.70x+0.016 with a R^2=0.999 monitored at 281 nm.
Solubility in PEG 300 increased with increasing temperature with the value being greater than 600 mg/mL at 95° C.

A short description of series [3]: physchem. Format: physicochemical. The conditions noted are these: water. Here is the method: Terameprocol is an extremely difficult drug to formulate because it is effectively insoluble in all of the commonly used aqueous media used for intravenous delivery of pharmaceuticals. Terameprocol's solubility in an aqueous solvent, at all pH's in water, 0.9% saline and 5% dextrose is <0.01 mg/mL, a level below the limit of quantitation of the RP-HPLC assay used for evaluation. In order to develop a formulation suitable for clinical use, it is preferred that the solubility of the drug be equal to or exceed 5 mg/mL. At concentrations below this limit, large volumes of solvent are required to deliver the drug. The extremely low solubility of terameprocol presents major formulation challenges using conventional formulation techniques such as the use of organic solvents, surfactants or extremes of pH. These conventional formulation approaches would require the administration of large concentrations of co-solvents and may render the solution viscous and/or difficult to handle during reconstitution in the bedside or pharmacy. […] The use of conventional approaches have met with limited success when formulating terameprocol for intravenous parenteral administration.

Series [4] in a line: Stability of terameprocol/HPβCD 5 L formulation with NaCl and after autoclaving (precipitation). Format: physicochemical. Here is the method:
The 5 L experiments were conducted to (a) explore the acceptable temperature range indicated in ‘b’ above required for forming terameprocol cyclodextrin complexes, (b) evaluate the stability of terameprocol/HPβCD upon autoclaving: 15 minutes vs. 30 minutes at 121° C., (c) evaluate the compatibility of terameprocol/HPβCD with 0.5% (w/v) sodium chloride (NaCl), and (d) develop a process which could be scaled to the next engineering size of 60 L. The acceptable temperature required for complexation of terameprocol and cyclodextrin (HPβCD) was determined to be above the melting point of terameprocol (>104° C.). The resulting terameprocol/HPβCD formulation was stable for 4 weeks at room temperature (RT), 4 weeks under refrigerated conditions, and 2 weeks under accelerated conditions (40° C.) for all sample types evaluated: non-autoclaved, autoclaved up to 30 minutes, and upon spiking with NaCl as shown in Table 2. The compatibility of terameprocol/HPβCD with NaCl supports flushing of the IV lines with 0.9% Saline to keep lines patent if required.

The nature of series [5]: Achievable terameprocol concentration in HPβCD formulations without co-solvent (bench-scale development). In kind it is physicochemical. Here is the method: The inventors of the present invention have made the surprising discovery that terameprocol can be formulated in cyclodextrins without the need for elaborate chemical solvent matrices and that lead to increases in the solubility of water insoluble drugs through the formation of a stable inclusion complex. […] Details of this will be discussed later.
Bench-top (10 mL) to 5 L scale development studies were performed to remove PEG 300 from terameprocol/HPβCD formulations. Conclusions from the bench scale experiments were (a) 7 mg/mL is the maximum achievable terameprocol concentration in an IV formulation containing 30-40% HPβCD (b) incorporating the drug at high temperatures (80° C. or greater) is an important step in forming the inclusion complex (c) high mechanical energy must be provided when cooling the complex to approximately ambient condition once formed. There were differences in equipment used at the 10 mL vs. 5 L scale. The 10 mL scale utilized glass beakers with a sonicator for incorporation, while the 5 L experiments were conducted with a 10 L stainless steel jacketed vessel equipped with a recirculating heating bath, overhead air powered blade mixer and an in-line homogenizer.

Series [6] is described as follows: Accelerated stability of 60 L lot terameprocol/HPβCD samples. In kind it is physicochemical. Particulars: 40° C/75% RH for 1 month; 60 L lots; no pH adjustment with/without homogenization, or pH 7 without homogenizer, with/without autoclaving. Here is the method:
The 5 L terameprocol formulation process was scaled up to 60 L lots. The 60 L lots were conducted to (a) evaluate the criticality of using an homogenizer to promote complexation of the terameprocol and HPβCD (b) evaluate the stability of the terameprocol/HPβCD complex upon pH adjustment after compounding using NaOH and/or HCl (c) investigate the stability after autoclaving up to 30 minutes at 121° C. of the non pH adjusted, pH adjusted, homogenized, and non-homogenized terameprocol samples (d) optimize the 5 L formulation process to 60 L in order to support a clinical scale-up to 373 L.
It was determined that with proper tank design using an aggressive mixer introduced enough energy into the system where the homogenizer may not be critical for complexation. Samples of terameprocol that had 1) no pH adjustment with and without homogenization and 2) pH adjusted to 7 with no homogenizer and with and without autoclaving were stable at the accelerated condition of 40° C/75% RH for 1 month.

The nature of series [7]: Chemical stability of terameprocol under stress (base, acid, heat, light, oxidizer, water). In kind it is physicochemical. The conditions noted are these: subjected to base, oxidizer, and water. From the text: Terameprocol is a small molecule with a molecular weight of 358.5 g/mol; it is hydrophobic, and non-ionic.
Series [8] can be described thus: Determination of optimum temperature requirement (microscopic images of in-process samples). In kind it is physicochemical. Particulars: for crystals in in-process sample (microscopic image): HPβCD solution, homogenized. Here is the method:
A solution of HPβCD was prepared in a 5 L jacketed vessel and heated to aid in dissolution. Terameprocol was added slowly to the HPβCD solution. The in-line homogenizer was utilized and the temperature was maintained at 40° C. for 2 hours. […] The temperature was increased to 60° C. with homogenization and held for one hour. […] The temperature was increased to 80° C. under homogenization for 2 hours. It was noted that due to heating in a closed vessel, the system was slightly pressurized due to the increase in operating temperature. […] The experiment was repeated but the system was taken to temperature above the melting point (>104° C.) with homogenization in the same closed vessel. The vessel was then cooled and samples taken. […] It was concluded the optimum temperature requirement was that above the drug's melting point.

[9] abbreviates: 0.5% w/v NaCl, autoclaved 15 min at 121° C.
The mark [10] stands for this setting: 0.5% w/v NaCl, autoclaved 30 min at 121° C.
[11] abbreviates: Unspiked, autoclaved 15 min at 121° C.
The mark [12] stands for this setting: Unspiked, autoclaved 30 min at 121° C.

Structures are written as SMILES. Values after ≈ are worked out from the molar mass of the structure shown. Read-outs that look alike come from different tables or passages of the source.

On to `CC(O)COC[C@H]1O[C@@H]2O[C@H]3[C@H](O)[C@@H](O)[C@@H](O[C@H]4[C@H](O)[C@@H](O)[C@@H](O[C@H]5[C@H](O)[C@@H](O)[C@@H](O[C@H]6[C@H](O)[C@@H](O)[C@@H](O[C@H]7[C@H](O)[C@@H](O)[C@@H](O[C@H]8[C@H](O)[C@@H](O)[C@@H](O[C@H]1[C@H](O)[C@H]2O)O[C@@H]8COCC(C)O)O[C@@H]7COCC(C)O)O[C@@H]6COCC(C)O)O[C@@H]5COCC(C)O)O[C@@H]4COCC(C)O)O[C@@H]3COCC(C)O` (stereo partly drawn) [HPβCD, hydroxypropyl beta-cyclodextrin], for which the stability during sterilization result in series [1] (121° C. for 15 minutes) is given as “stable”. Further, the hydrolysis entry is “slight hydrolysis” in series [1] (extreme acidic conditions of pH 2 at 60° C.) and “No significant hydrolysis” in series [1] (pH 4, at 40° C. after 24 hrs).

In the case of `COc1ccc(C[C@@H](C)[C@@H](C)Cc2ccc(OC)c(OC)c2)cc1OC` [terameprocol, tetra-o-methyl nordihydroguaiaretic acid], in series [2] (25 °C, solubility in pharmaceutically relevant solvents), the solubility – broadly, how much of the substance goes into solution per volume – at 16 h is less than 10 mg/mL. The solubility is 10.1 mg/mL (≈ 28.2 mM) in series [2] (40 °C), more than 400 mg/mL in series [2] (80 °C), more than 600 mg/mL in series [2] (95 °C) and less than 0.01 mg/mL in series [3]. For the same compound, the “Precipitation 2-8° C. (4-weeks)” value is recorded as “No” in series [4] (setting [9]); “No” in series [4] (setting [10]); “No” in series [4] (0.5% w/v NaCl, not autoclaved); “No” in series [4] (setting [11]); “No” in series [4] (setting [12]); “No” in series [4] (Unspiked, not autoclaved). For the same compound, the “Precipitation 40° C. (2-weeks)” value in series [4] (setting [9]) is reported as “No”; in series [4] (setting [10]), “No”; in series [4] (0.5% w/v NaCl, not autoclaved) it was “No”; in series [4] (setting [11]), “No”; in series [4] (setting [12]), “No”; in series [4] (Unspiked, not autoclaved) it was “No”. The “Precipitation RT (4-weeks)” value in series [4] (setting [9]) is “No”; in series [4] (setting [10]), “No”; in series [4] (0.5% w/v NaCl, not autoclaved) it was “No”; in series [4] (setting [11]), “No”; in series [4] (setting [12]), “No”; in series [4] (Unspiked, not autoclaved), “No”. The “Terameprocol” value is on record as 6.03 mg/mL in series [4] (setting [9]); 5.77 mg/mL in series [4] (setting [10]); 5.89 mg/mL in series [4] (0.5% w/v NaCl, not autoclaved); 5.76 mg/mL in series [4] (setting [11]); 5.97 mg/mL in series [4] (setting [12]); 5.80 mg/mL in series [4] (Unspiked, not autoclaved). For the same compound, in series [5] (IV formulation containing 30-40% HPβCD, no PEG 300, bench scale), the “maximum achievable terameprocol concentration” value stood at 7 mg/mL. Also, the “concentration obtained on mixing with cyclodextrin in water without solvent” value in series [5] (all temperatures below the melting point, or precipitation) was not above 7000 µg/mL. For the same compound, the formulation stability entry in series [6] is “stable”. Further, the stability / degradation entry in series [7] is “does not degrade”. The “crystals in in-process sample (microscopic image)” value in series [8] (40° C. for 2 hours (FIG. 6-A)) is “numerous terameprocol crystals present”; in series [8] (60° C. for one hour (FIG. 6-B)) it was “presence of crystals was still evident”; in series [8] (80° C. for 2 hours (FIG. 6-C)), “significant reduction in crystal formation”. In addition, the crystal formation result in series [8] (processed above the melting point (>104° C.) with homogenization, immediately or after 4 weeks) is recorded as “no crystal formation”.

Source of the values: patent publication US20100093872A1, “STABLE AQUEOUS FORMULATIONS OF WATER INSOLUBLE OR POORLY SOLUBLE DRUGS” (Erimos Pharmaceuticals LLC, priority 2008, published 2010).
